Experimental data taken from patent US11154563B2, “Immunoproteasome inhibitors” (Principia Biopharma Inc., priority 2017, dated 2021).

What was measured:
Assay type in all cases: biochemical
[1] = target: constitutive proteasome β5c unit (Homo sapiens, UniProt P20618+P28074); assay: Caliper-based proteasome enzymatic activity assay, β5c; conditions: human recombinant constitutive proteasome 0.3 nM, FAM-peptide substrate 1 μM, 3 h at rt; read-out: β5c subunit IC50
In short: (§1)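 Recombinant human immunoproteasome or constitutive proteasome (0.3 nM) with 1 μM FAM-peptide in 20 mM Hepes pH 7.4, 0.015% SDS, 0.01% BSA; LMP7/β5c ran 3 h at rt and were stopped with 5 uM carfilzomib, LMP2 ran 2 h and was stopped with 6.7 uM ixazomib. Cleaved product quantified by microfluidic separation; IC50 from percent inhibition.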

[2] = target: immunoproteasome LMP7/B5i subunit (Homo sapiens, UniProt P20618+P28062); assay: Caliper-based proteasome enzymatic activity assay, LMP7; conditions: human recombinant immunoproteasome 0.3 nM, FAM-peptide substrate 1 μM, 3 h at rt
In short: as §1

[3] = target: immunoproteasome LPM2/β1i subunit (Homo sapiens, UniProt P28065+P40306); assay: Caliper-based proteasome enzymatic activity assay, LMP2; conditions: human recombinant immunoproteasome 0.3 nM, FAM-peptide substrate 1 μM, 2 h at rt
Method: A Caliper-based proteasome assay (Caliper Life Sciences, Hopkinton, Mass.) was used to measure inhibition of the immunoproteasome LMP7/B5i subunit, the immunoproteasome LPM2/β1i subunit, and the constitutive proteasome β5c unit for a compound of Formula (I). For LMP7 and β5c, serial dilutions of test compounds were incubated with either human recombinant immunoprotcasome or constitutive proteasome (0.3 nM enzyme) and a carboxyfluorescein (FAM)-labeled peptide substrate FAM-TYETFKSIMKKSPF-NH2 (1 μM) at it for 3 h. The reaction was then terminated with a buffer containing the known proteasome inhibitor carfilzomib at a concentration of 5 uM. For LMP2, serial dilutions of test compounds were incubated with human recombinant immunoproteasome proteasome (0.3 nM enzyme) and a carboxyfluorescein (FAM)-labeled peptide substrate FAM-[…]-NH2 (1 μM) at rt for 2 h. The reaction was then terminated with a buffer containing the known proteasome inhibitor ixazomib at a concentration of 6.7 uM. The reaction buffer was 20 mM Hepes pH 7.4, 0.01% bovine serum albumin, 0.015% SDS, 0.5 mM EDTA, 1%0/DMSO. The peptide cleavage reaction product was quantified on a Caliper LabChip 3000. Percent inhibition was calculated for each compound dilution and the concentration that produced 50% inhibition was calculated. This value is presented as the IC50.

| IC50 [1] | IC50 [2] | IC50 [3] | SMILES |
| --- | --- | --- | --- |
| > 5000 nM | 16 nM | > 5000 nM | CC(C)(C=C(C#N)C(=O)N1CCCC[C@@H]1COC(=O)N[C@@H](Cc1ccccc1)B(O)O)N1CCCCC1 [Example 30, ((R)-1-(((((R)-1-(2-cyano-4-methyl-4-(piperidin-1-yl)pent-2-enoyl)piperidin-2-yl)methoxy)carbonyl)amino)-2-phenylethyl)boronic acid] |
| 2390 nM | 12 nM | > 5000 nM | CC(C)(C=C(C#N)C(=O)N1CCCC[C@@H]1COC(=O)N[C@@H](Cc1ccccc1)B(O)O)N1CCC(F)(F)CC1 [Example 31, ((R)-1-(((((R)-1-(2-cyano-4-(4,4-difluoropiperidin-1-yl)-4-methylpent-2-enoyl)piperidin-2-yl)methoxy)carbonyl)amino)-2-phenylethyl)boronic acid] |
| 713 nM | 9.2 nM | > 5000 nM | Cc1ccc(C[C@H](NC(=O)OC[C@H]2CCCCCN2C(=O)C(C#N)=CC(C)(C)C)B(O)O)cc1 [Example 32, ((R)-1-(((((R)-1-(2-cyano-4,4-dimethylpent-2-enoyl)azepan-2-yl)methoxy)carbonyl)amino)-2-(p-tolyl)ethyl)boronic acid] |
| > 5000 nM | 41 nM | > 5000 nM | Cc1ccc(C[C@H](NC(=O)OC[C@@H]2CCCCCN2C(=O)C(C#N)=CC(C)(C)C)B(O)O)cc1 [Example 33, ((R)-1-(((((S)-1-(2-cyano-4,4-dimethylpent-2-enoyl)azepan-2-yl)methoxy)carbonyl)amino)-2-(p-tolyl)ethyl)boronic acid] |
| 3370 nM | 14 nM | > 5000 nM | CC(C)(C=C(C#N)C(=O)N1CCC[C@@H]1COC(=O)N[C@@H](Cc1ccccc1)B(O)O)N1CCCC1 [Example 34, ((R)-1-(((((R)-1-(2-cyano-4-methyl-4-(pyrrolidin-1-yl)pent-2-enoyl)pyrrolidin-2-yl)methoxy)carbonyl)amino)-2-phenylethyl)boronic acid] |
| 3020 nM | 2 nM | > 5000 nM | CC(C)(C=C(C#N)C(=O)N1CCC[C@@H]1COC(=O)N[C@@H](Cc1ccccc1)B(O)O)N1CCC(F)(F)C1 [Example 35, ((R)-1-(((((R)-1-(2-cyano-4-(3,3-difluoropyrrolidin-1-yl)-4-methylpent-2-enoyl)pyrrolidin-2-yl)methoxy)carbonyl)amino)-2-phenylethyl)boronic acid] |
| 397 nM | 6.9 nM | > 5000 nM | C=CC(=O)N1CCC[C@@H]1COC(=O)N[C@@H](Cc1coc2ccccc12)B(O)O [Example 36, ((R)-1-(((((R)-1-acryloylpyrrolidin-2-yl)methoxy)carbonyl)amino)-2-(benzofuran-3-yl)ethyl)boronic acid] |
| 1960 nM | 4 nM | > 5000 nM | CC(C)(C)C=C(C#N)C(=O)N1C[C@H]2C[C@H]2[C@@H]1COC(=O)N[C@@H](Cc1ccccc1)B(O)O [Example 37, ((R)-1-(((((1R,2R,5S)-3-(2-cyano-4,4-dimethylpent-2-enoyl)-3-azabicyclo[3.1.0]hexan-2-yl)methoxy)carbonyl)amino)-2-phenylethyl)boronic acid] |
| > 5000 nM | 7 nM | > 5000 nM | CC(C)(C)C=C(C#N)C(=O)N1C[C@@H]2C[C@@H]2[C@H]1COC(=O)N[C@@H](Cc1ccccc1)B(O)O [Example 38] |
| 187 nM | 1.2 nM | > 5000 nM | CC(C)(C)C=C(C#N)C(=O)N1CCC[C@@H]1COC(=O)N[C@@H](Cc1coc2ccccc12)B(O)O [Example 39, ((R)-2-(benzofuran-3-yl)-1-(((((R)-1-(2-cyano-4,4-dimethylpent-2-enoyl)pyrrolidin-2-yl)methoxy)carbonyl)amino)ethyl)boronic acid] |
| 228 nM | 1.3 nM | > 5000 nM | CC(C)(C=C(C#N)C(=O)N1CCC[C@@H]1COC(=O)N[C@@H](Cc1coc2ccccc12)B(O)O)N1CCOCC1 [Example 40, ((R)-2-(benzofuran-3-yl)-1-(((((R)-(2-cyano-4-methyl-4-morpholinopent-2-enoyl)pyrrolidin-2-yl)methoxy)carbonyl)amino)ethyl)boronic acid] |
| 518 nM | 1.6 nM | > 5000 nM | Cc1ccc(C[C@H](NC(=O)OC[C@H]2CCCCN2C(=O)C(C#N)=CC(C)(C)N2CCC(F)(F)C2)B(O)O)cc1 [Example 41, ((R)-1-(((((R)-1-(2-cyano-4-(3,3-difluoropyrrolidin-1-yl)-4-methylpent-2-enoyl)piperidin-2-yl)methoxy)carbonyl)amino)-2-(p-tolyl)ethyl)boronic acid] |
| 372 nM | 2.8 nM | > 5000 nM | CC1(C=C(C#N)C(=O)N2CCCC[C@@H]2COC(=O)N[C@@H](Cc2coc3ccccc23)B(O)O)CCOCC1 [Example 59, ((R)-2-(benzofuran-3-yl)-1-(((((R)-1-(2-cyano-3-(4-methyltetrahydro-2H-pyran-4-yl)acryloyl)piperidin-2-yl)methoxy)carbonyl)amino)ethyl)boronic acid] |
| 2310 nM | 1 nM | > 5000 nM | CC(C)(C=C(C#N)C(=O)N1C[C@@H]2C[C@@H]2[C@@H]1COC(=O)N[C@@H](Cc1ccccc1)B(O)O)N1CCOCC1 [Example 67, ((R)-1-(((((1S,2R,5R)-3-(2-cyano-4-methyl-4-morpholinopent-2-enoyl)-3-azabicyclo[3.1.0]hexan-2-yl)methoxy)carbonyl)amino)-2-phenylethyl)boronic acid] |
| 925 nM | 1.2 nM | 3360 nM | CC(C)(C=C(C#N)C(=O)N1C[C@@H]2C[C@@H]2[C@@H]1COC(=O)N[C@@H](Cc1ccccc1)B(O)O)N1CCC(F)(F)C1 [Example 74, ((R)-1-(((((1S,2R,5R)-3-(2-cyano-4-(3,3-difluoropyrrolidin-1-yl)-4-methylpent-2-enoyl)-3-azabicyclo[3.1.0]hexan-2-yl)methoxy)carbonyl)amino)-2-phenylethyl)boronic acid] |
| 2150 nM | 1.4 nM | > 5000 nM | CC(C)(C=C(C#N)C(=O)N1CCCC[C@@H]1COC(=O)N[C@@H](Cc1ccc(F)cc1)B(O)O)N1CCC(F)(F)C1 [Example 82, ((R)-1-(((((R)-1-(2-cyano-4-(3,3-difluoropyrrolidin-1-yl)-4-methylpent-2-enoyl)piperidin-2-yl)methoxy)carbonyl)amino)-2-(4-fluorophenyl)ethyl)boronic acid] |
| 1220 nM | 4.4 nM | > 5000 nM | CC(C)(C=C(C#N)C(=O)N1CCCC[C@@H]1COC(=O)N[C@@H](Cc1ccc(C(F)(F)F)cc1)B(O)O)N1CCC(F)(F)C1 [Example 83, ((R)-1-(((((R)-1-(2-cyano-4-(3,3-difluoropyrrolidin-1-yl)-4-methylpent-2-enoyl)piperidin-2-yl)methoxy)carbonyl)amino)-2-(4-(trifluoromethyl)phenyl)ethyl)boronic acid] |
| 4890 nM | 2 nM | > 5000 nM | CC(C)(C=C(C#N)C(=O)N1CCC[C@]1(C)COC(=O)N[C@@H](Cc1ccccc1)B(O)O)N1CCC(F)(F)C1 [Example 85, ((R)-1-(((((R)-1-(2-cyano-4-(3,3-difluoropyrrolidin-1-yl)-4-methylpent-2-enoyl)-2-methylpyrrolidin-2-yl)methoxy)carbonyl)amino)-2-phenylethyl)boronic acid] |
| 566 nM | 2.7 nM | > 5000 nM | Cc1ccc(C[C@H](NC(=O)OC[C@H]2COCCN2C(=O)C(C#N)=CC(C)(C)N2CCC(F)(F)C2)B(O)O)cc1 [Example 86, ((R)-1-(((((R)-4-(2-cyano-4-(3,3-difluorpyrrolidin-1-yl)-4-methylpent-2-enoyl)morpholin-3-yl)methoxy)carbonyl)amino)-2-(p-tolyl)ethyl)boronic acid] |
| 1960 nM | 1 nM | 4500 nM | CC(C)(C)/C=C(\C#N)C(=O)N1C[C@H](F)C[C@@H]1COC(=O)N[C@@H](Cc1ccccc1)B(O)O [Example 90, ((R)-1-(((((2R,4R)-1-((E)-2-cyano-4,4-dimethylpent-2-enoyl)-4-fluoropyrrolidin-2-yl)methoxy)carbonyl)amino)-2-phenylethyl)boronic acid] |
| 1130 nM | 0.7 nM | 4490 nM | CC(C)(C)/C=C(\C#N)C(=O)N1C[C@@H](F)C[C@@H]1COC(=O)N[C@@H](Cc1ccccc1)B(O)O [Example 102, ((R)-1-(((((2R,4S)-1-((E)-2-cyano-4,4-dimethylpent-2-enoyl)-4-fluoropyrrolidin-2-yl)methoxy)carbonyl)amino)-2-phenylethyl)boronic acid] |
